Experimental data published in ChEMBL document CHEMBL4765473, “PF-07059013: A Noncovalent Modulator of Hemoglobin for Treatment of Sickle Cell Disease” (J Med Chem, 2021).
≈ marks a conversion by molar mass, not a printed value. Calls of active or inactive are those of the source. The calls are words filed in the database; no cut-off is given here.

Columns and labels:
[1] = Binding affinity to purified human cross-linked HbS by SPR analysis
[2] = Modulation of HbS (unknown origin) assessed as stabilization of the oxy-state of hemoglobin by measuring conversion from oxyHb (R) to deoxyHb (T) pre-incubated for 1 hr and measured after 120 mins by oxygen dissociation assay; set-up: species or system Homo sapiens
[3] = Intrinsic clearance in human hepatocytes assessed per million cells; format: ADME, cell-based, Hepatocyte; details: read-out: CLH
[4] = molecular target: T1, Voltage-gated inwardly rectifying potassium channel KCNH2 (Homo sapiens, UniProt Q12809); test: Binding affinity to human ERG by dofetilide fluorescence polarization binding assay
T1 sequence (Q12809 whole entry): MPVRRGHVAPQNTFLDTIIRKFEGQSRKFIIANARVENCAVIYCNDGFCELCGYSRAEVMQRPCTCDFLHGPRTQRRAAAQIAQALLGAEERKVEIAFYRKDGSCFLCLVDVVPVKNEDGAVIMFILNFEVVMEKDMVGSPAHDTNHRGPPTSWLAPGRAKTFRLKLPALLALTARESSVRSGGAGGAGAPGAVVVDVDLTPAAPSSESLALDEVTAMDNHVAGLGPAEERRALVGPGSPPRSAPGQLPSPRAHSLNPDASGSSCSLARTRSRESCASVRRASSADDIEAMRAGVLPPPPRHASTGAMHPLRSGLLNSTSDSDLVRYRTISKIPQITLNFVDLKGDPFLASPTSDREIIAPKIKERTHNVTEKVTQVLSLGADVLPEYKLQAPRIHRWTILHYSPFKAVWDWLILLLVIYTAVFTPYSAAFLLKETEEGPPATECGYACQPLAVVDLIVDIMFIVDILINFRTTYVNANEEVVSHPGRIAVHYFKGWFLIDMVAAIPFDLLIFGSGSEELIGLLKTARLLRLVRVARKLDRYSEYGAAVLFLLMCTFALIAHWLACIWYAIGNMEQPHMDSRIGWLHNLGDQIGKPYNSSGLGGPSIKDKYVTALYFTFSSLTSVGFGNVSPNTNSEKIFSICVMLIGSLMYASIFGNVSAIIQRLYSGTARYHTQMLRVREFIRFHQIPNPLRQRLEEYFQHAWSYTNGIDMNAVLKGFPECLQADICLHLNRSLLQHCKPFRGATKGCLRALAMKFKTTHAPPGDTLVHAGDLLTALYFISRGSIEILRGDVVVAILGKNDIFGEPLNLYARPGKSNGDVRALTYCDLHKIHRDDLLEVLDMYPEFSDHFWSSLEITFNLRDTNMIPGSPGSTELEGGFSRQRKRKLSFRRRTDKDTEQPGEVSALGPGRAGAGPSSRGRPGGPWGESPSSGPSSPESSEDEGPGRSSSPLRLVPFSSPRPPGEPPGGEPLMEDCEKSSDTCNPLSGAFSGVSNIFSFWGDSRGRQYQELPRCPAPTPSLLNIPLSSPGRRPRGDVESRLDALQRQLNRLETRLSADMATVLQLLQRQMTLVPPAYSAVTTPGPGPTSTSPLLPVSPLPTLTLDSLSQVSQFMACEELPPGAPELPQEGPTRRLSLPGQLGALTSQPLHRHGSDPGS

[5] = Distribution coefficient, log D of the compound by shake flask method; format: physicochemical; details: octanol/water
[6] = Apparent permeability in MDCK cells; format: ADME, cell-based, Canis lupus familiaris; details: dog
[7] = Protein binding in human blood; format: ADME, tissue-based
[8] = tested on: Mus musculus; test: Binding to HbS in sickle Townes mouse at 10 to 490 mg/kg, po dosed via gavage measured after 0.5 to 24 hrs by Hemox-analyzer based assay; format: functional, organism-based; details: dose 10-490 mg/kg, time 0.5-24 hrs
[9] = Modulation activity at HbS in sickle Townes mouse assessed as decrease in RBC sickling at 200 mg/kg, po BID for 15 days dosed via gavage by Hemox-analyzer based assay; format: functional; set-up: scale not given: the % may be the effect or the level left; details: time 15 day
[10] = Drug metabolism in human hepatocytes assessed formation of glucuronide metabolites; format: ADME, cell-based, Hepatocyte
[11] = Apparent permeability from apical to basolateral side in MDCK-MDR1 cells; format: ADME, cell-based, Canis lupus familiaris; details: dog
[12] = Apparent permeability from basolateral to apical side in MDCK-MDR1 cells; format: ADME, cell-based, Canis lupus familiaris; details: dog
[13] = molecular target: T2, Cytochrome P450 1A2 (Homo sapiens, UniProt P05177); test: Inhibition of CYP1A2 (unknown origin); format: ADME
T2 sequence (P05177 whole entry): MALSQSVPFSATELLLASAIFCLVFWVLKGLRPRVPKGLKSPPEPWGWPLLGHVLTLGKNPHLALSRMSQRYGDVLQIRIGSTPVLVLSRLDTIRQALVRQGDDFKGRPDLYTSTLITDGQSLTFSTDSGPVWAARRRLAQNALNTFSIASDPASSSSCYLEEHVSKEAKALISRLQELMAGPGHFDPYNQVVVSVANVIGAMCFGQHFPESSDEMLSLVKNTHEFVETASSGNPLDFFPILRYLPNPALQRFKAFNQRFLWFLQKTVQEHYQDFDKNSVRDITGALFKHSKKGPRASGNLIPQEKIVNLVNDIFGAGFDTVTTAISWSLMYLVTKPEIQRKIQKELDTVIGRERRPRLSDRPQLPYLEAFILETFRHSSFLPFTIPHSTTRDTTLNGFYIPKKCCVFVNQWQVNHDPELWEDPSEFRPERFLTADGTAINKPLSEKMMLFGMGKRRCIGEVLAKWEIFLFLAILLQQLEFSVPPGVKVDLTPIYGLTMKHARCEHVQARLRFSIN

[14] = molecular target: T3, Cytochrome P450 2C8 (Homo sapiens, UniProt P10632); test: Inhibition of CYP2C8 (unknown origin); format: ADME
T3 sequence (P10632 whole entry): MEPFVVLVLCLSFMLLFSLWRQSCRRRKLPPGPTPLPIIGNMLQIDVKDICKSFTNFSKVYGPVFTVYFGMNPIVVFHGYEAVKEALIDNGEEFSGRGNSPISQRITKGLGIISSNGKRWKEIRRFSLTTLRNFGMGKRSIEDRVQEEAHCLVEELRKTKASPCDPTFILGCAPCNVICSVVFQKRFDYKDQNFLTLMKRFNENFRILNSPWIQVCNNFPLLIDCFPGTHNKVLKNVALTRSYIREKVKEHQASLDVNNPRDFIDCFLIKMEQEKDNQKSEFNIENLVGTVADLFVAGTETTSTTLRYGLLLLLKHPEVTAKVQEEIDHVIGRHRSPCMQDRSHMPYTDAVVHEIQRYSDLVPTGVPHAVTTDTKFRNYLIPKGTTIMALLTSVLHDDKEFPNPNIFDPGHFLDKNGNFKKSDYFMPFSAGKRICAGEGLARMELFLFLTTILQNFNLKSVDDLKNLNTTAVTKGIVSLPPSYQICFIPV

[15] = molecular target: Cytochrome P450 2C9 (Homo sapiens, UniProt P11712); test: Inhibition of CYP2C9 (unknown origin); format: ADME
Sequence of Cytochrome P450 2C9 (P11712 whole entry): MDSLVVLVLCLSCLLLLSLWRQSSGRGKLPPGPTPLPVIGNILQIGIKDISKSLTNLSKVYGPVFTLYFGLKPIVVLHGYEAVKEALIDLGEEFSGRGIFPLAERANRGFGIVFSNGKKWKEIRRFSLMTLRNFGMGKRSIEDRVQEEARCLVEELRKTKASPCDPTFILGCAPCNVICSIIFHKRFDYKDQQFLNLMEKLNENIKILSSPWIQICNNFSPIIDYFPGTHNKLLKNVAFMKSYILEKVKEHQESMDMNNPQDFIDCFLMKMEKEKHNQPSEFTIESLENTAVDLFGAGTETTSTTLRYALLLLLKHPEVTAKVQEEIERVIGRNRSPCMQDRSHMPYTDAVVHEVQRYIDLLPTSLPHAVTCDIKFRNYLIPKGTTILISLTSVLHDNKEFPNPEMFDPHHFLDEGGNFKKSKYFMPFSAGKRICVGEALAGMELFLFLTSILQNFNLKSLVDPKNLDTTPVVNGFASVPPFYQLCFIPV

[16] = molecular target: Cytochrome P450 2D6 (Homo sapiens, UniProt P10635); test: Inhibition of CYP2D6 (unknown origin); format: ADME
Sequence of Cytochrome P450 2D6 (P10635 whole entry): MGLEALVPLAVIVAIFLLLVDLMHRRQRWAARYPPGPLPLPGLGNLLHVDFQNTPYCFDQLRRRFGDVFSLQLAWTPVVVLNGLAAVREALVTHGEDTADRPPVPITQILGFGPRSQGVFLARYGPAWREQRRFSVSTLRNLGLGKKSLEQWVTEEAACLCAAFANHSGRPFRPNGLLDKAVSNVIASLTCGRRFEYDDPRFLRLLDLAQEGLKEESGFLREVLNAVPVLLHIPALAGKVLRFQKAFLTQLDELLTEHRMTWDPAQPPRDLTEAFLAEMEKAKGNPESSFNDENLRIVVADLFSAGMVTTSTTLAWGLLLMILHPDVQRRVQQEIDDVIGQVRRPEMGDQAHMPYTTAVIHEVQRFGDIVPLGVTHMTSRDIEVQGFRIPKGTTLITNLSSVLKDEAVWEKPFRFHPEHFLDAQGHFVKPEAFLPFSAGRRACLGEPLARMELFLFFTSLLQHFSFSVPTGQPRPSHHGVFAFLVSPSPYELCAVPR

[17] = molecular target: Cytochrome P450 3A4 (Homo sapiens, UniProt P08684); test: Inhibition of CYP3A4 (unknown origin); format: ADME
Sequence of Cytochrome P450 3A4 (P08684 whole entry): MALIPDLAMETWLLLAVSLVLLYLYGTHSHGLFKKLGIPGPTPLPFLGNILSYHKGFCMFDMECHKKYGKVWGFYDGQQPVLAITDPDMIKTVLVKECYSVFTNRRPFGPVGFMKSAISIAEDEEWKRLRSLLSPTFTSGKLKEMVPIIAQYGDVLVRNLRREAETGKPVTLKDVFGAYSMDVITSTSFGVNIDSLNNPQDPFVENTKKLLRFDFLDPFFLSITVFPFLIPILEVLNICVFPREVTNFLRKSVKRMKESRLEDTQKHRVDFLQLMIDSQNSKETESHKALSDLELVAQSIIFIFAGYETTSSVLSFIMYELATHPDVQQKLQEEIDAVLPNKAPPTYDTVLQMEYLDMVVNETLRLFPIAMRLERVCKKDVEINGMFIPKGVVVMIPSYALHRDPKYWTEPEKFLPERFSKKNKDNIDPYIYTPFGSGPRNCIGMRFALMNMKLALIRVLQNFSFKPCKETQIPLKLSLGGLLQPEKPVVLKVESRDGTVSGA

[18] = Unbound fraction in human plasma; format: ADME, cell-free
[19] = Protein binding in human RBC assessed as unbound fraction at 1 mM; format: ADME, tissue-based, Erythrocyte; details: red blood cells (RBC)
[20] = molecular target: T1, Voltage-gated inwardly rectifying potassium channel KCNH2; test: Inhibition of human ERG by patch clamp assay
[21] = organism: Homo sapiens; test: Binding affinity to HbS (unknown origin) by ITC analysis; details: filed as modulator
[22] = Intrinsic clearance in mouse hepatocytes assessed per million cells; format: ADME, cell-based, Hepatocyte; details: read-out: CLH
[23] = molecular target: T4, CYP1A2 (Homo sapiens, UniProt P05177); test: Inhibition of CYP1A2 (unknown origin) at 3 uM relative to control; format: ADME
T4 sequence (P05177 whole entry): T2 sequence (P05177 whole entry)

[24] = molecular target: CYP2D6 (Homo sapiens, UniProt P10635); test: Inhibition of CYP2D6 (unknown origin) at 3 uM relative to control; format: ADME
Sequence of CYP2D6 (P10635 whole entry): as the sequence (P10635 whole entry) above

[25] = molecular target: T5, CYP2C8 (Homo sapiens, UniProt P10632); test: Inhibition of CYP2C8 (unknown origin) at 3 uM relative to control; format: ADME
T5 sequence (P10632 whole entry): T3 sequence (P10632 whole entry)

[26] = molecular target: CYP2C9 (Homo sapiens, UniProt P11712); test: Inhibition of CYP2C9 (unknown origin) at 3 uM relative to control; format: ADME
Sequence of CYP2C9 (P11712 whole entry): as the sequence (P11712 whole entry) above

[27] = molecular target: CYP3A4 (Homo sapiens, UniProt P08684); test: Inhibition of CYP3A4 (unknown origin) at 3 uM relative to control; format: ADME
Sequence of CYP3A4 (P08684 whole entry): as the sequence (P08684 whole entry) above

[28] = Kinetic solubility of the compound; format: physicochemical; details: read-out: Kinetic_solubility
[29] = Thermodynamic solubility of the compound; format: physicochemical; details: read-out: Therm_solubility
[30] = organism: Homo sapiens; test: Binding affinity to HbS tetramer (unknown origin) by ESI-MS analysis; details: filed as modulator

SMILES: C[C@H](Oc1cc2cc(F)ccc2nc1N)c1cc2c(cnn2CC(=O)O)cc1-n1cccn1
- Kd [1]: 0.009 µM
- IC50 [2]: 3.7 µM
- hepatocyte CLint [3]: 21 µL/min/1e6 cells
- Ki [4]: > 40 µM
- logD [5]: 0.5

SMILES: C[C@H](Oc1cc2cc(C(N)=O)ccc2nc1N)c1cc2c(cnn2CCO)cc1-n1cccn1
- Kd [1]: 0.059 µM
- IC50 [2]: 4.3 µM
- hepatocyte CLint [3]: 4 µL/min/1e6 cells
- Ki [4]: > 40 µM
- logD [5]: 2.1

SMILES: C[C@H](Oc1cc2cc(C(N)=O)ccc2nc1N)c1cc(F)c(F)cc1-n1cccn1
- Kd [1]: 0.122 µM
- IC50 [2]: 5.4 µM
- hepatocyte CLint [3]: 14 µL/min/1e6 cells
- Ki [4]: 4.1 µM
- logD [5]: 3.2

SMILES: C[C@H](Oc1cc2cc(F)ccc2nc1N)c1cc(C(=O)O)ccc1-n1cccn1
- Kd [1]: 0.1 µM
- IC50 [2]: 4.9 µM
- hepatocyte CLint [3]: 4 µL/min/1e6 cells
- Ki [4]: > 40 µM
- logD [5]: 0.9

SMILES: C[C@H](Oc1cc2cc(F)ccc2nc1N)c1cc(F)c(F)cc1-n1cccn1
- Kd [1]: 0.115 µM
- IC50 [2]: 5.7 µM
- hepatocyte CLint [3]: 57 µL/min/1e6 cells
- Ki [4]: 4.4 µM
- logD [5]: 4.1

SMILES: C[C@H](Oc1cc2cc(C#N)ccc2nc1N)c1cc(F)c(F)cc1-n1cccn1
- Kd [1]: 0.381 µM
- IC50 [2]: 5.5 µM
- hepatocyte CLint [3]: 24 µL/min/1e6 cells
- Ki [4]: 19 µM
- logD [5]: 4.3

SMILES: C[C@H](Oc1cc2ccccc2nc1N)c1cc(F)ccc1-n1cccn1
- Kd [1]: 1.5 µM
- IC50 [2]: 17 µM
- logD [5]: 4

SMILES: C[C@H](Oc1cc2cc(F)ccc2nc1N)c1[nH]c(=O)ccc1-n1cccn1 [PF-07059013]
- Kd [1]: 0.034 µM
- IC50 [2]: 4.8 µM
- Papp [6]: 20 ×10⁻⁶ cm/s
- hepatocyte CLint [3]: 18 µL/min/1e6 cells
- Ki [4]: > 36 µM
- logD [5]: 2.4
- PB [7]: Dose-dependent effect
- PPB [8]: Dose-dependent effect
- Activity [9]: 37.8%
- Drug metabolism [10]: Metabolite_Detected
- Papp A→B [11]: 0.1 ×10⁻⁶ cm/s
- Papp B→A [12]: 14 ×10⁻⁶ cm/s
- IC50 [13]: 24.4 µM
- IC50 [14]: 21.8 µM
- IC50 [15]: 24.9 µM
- IC50 [16]: > 30 µM
- IC50 [17]: > 30 µM
- fraction unbound [18]: 0.162
- fraction unbound at 1000 µM [19]: 0.000598
- IC50 [20]: 43 µM

SMILES: Cc1n[nH]cc1-c1cnc(N)c(O[C@@H](C)c2cc(F)ccc2-n2cccn2)c1
- Kd [1]: 3.6 µM
- Activity [21]: Active
- IC50 [2]: 21 µM
- Papp [6]: 24 ×10⁻⁶ cm/s
- hepatocyte CLint [22]: 104 µL/min/1e6 cells
- hepatocyte CLint [3]: 23 µL/min/1e6 cells
- inhibition at 3 µM [23]: < 50%
- inhibition at 3 µM [24]: < 50%
- inhibition at 3 µM [25]: < 50%
- inhibition at 3 µM [26]: < 50%
- inhibition at 3 µM [27]: < 50%
- Ki [4]: 3.8 µM
- logD [5]: 3.2

SMILES: C[C@H](Oc1cc2cc(C(N)=O)ccc2nc1N)c1cc(F)ccc1-n1cccn1
- Kd [1]: 0.402 µM
- IC50 [2]: 11 µM
- hepatocyte CLint [3]: 13 µL/min/1e6 cells
- Ki [4]: 24 µM
- logD [5]: 3

SMILES: C[C@H](Oc1cc2cc(C(N)=O)ccc2nc1N)c1ncc(F)cc1-n1cccn1
- Kd [1]: 0.183 µM
- IC50 [2]: 5.4 µM
- hepatocyte CLint [3]: < 2 µL/min/1e6 cells
- Ki [4]: 34 µM
- logD [5]: 1.9
- solubility kinetic [28]: 28.5 µg/mL (≈ 72.6 µM)
- solubility thermodynamic [29]: 5.3 µg/mL (≈ 13.5 µM)

SMILES: C[C@H](Oc1cc2cc(F)ccc2nc1N)c1cc2c(cnn2CCO)cc1-n1cccn1
- Kd [1]: 0.02 µM
- IC50 [2]: 4.5 µM
- Ki [4]: 8.3 µM
- logD [5]: 3.3

SMILES: Cc1n[nH]cc1-c1cnc(N)c(O[C@H](C)c2cc(F)ccc2-n2cccn2)c1
- Kd [1]: > 300 µM

SMILES: Cc1n[nH]cc1-c1cnc(N)c(OC(C)c2cc(F)ccc2-n2cccn2)c1 (racemic)
- Activity [30]: Active

SMILES: C[C@H](Oc1cc2cc(C(N)=O)cc(F)c2nc1N)c1ncc(F)cc1-n1cccn1
- Kd [1]: 0.068 µM
- IC50 [2]: 3.9 µM
- hepatocyte CLint [3]: 4 µL/min/1e6 cells
- Ki [4]: > 40 µM
- logD [5]: 2.1
- solubility kinetic [28]: 0.5 µg/mL (≈ 1.22 µM)
- solubility thermodynamic [29]: 0.6 µg/mL (≈ 1.46 µM)

SMILES: C[C@H](Oc1cc2cc(F)cc(F)c2nc1N)c1[nH]c(=O)ccc1-n1cccn1
- Kd [1]: 0.014 µM
- IC50 [2]: 4.3 µM
- hepatocyte CLint [3]: 17 µL/min/1e6 cells
- Ki [4]: 63 µM
- logD [5]: 2.6

SMILES: C[C@H](Oc1cc2cc(C(N)=O)ccc2nc1N)c1cc2[nH]ncc2cc1-n1cccn1
- Kd [1]: 0.036 µM
- IC50 [2]: 5.5 µM
- Papp [6]: 1.4 ×10⁻⁶ cm/s
- hepatocyte CLint [3]: < 3 µL/min/1e6 cells
- Ki [4]: 13 µM
- logD [5]: 2.7

SMILES: C[C@H](Oc1cc2cc(C#N)ccc2nc1N)c1cc(F)ccc1-n1cccn1
- Kd [1]: 0.322 µM
- IC50 [2]: 6.1 µM
- hepatocyte CLint [3]: 40 µL/min/1e6 cells
- Ki [4]: > 40 µM
- logD [5]: 3.8

SMILES: C[C@H](Oc1cc2cc(C(N)=O)ccc2nc1N)c1nc(OCCO)ccc1-n1cccn1
- Kd [1]: 0.142 µM
- IC50 [2]: 5.3 µM
- hepatocyte CLint [3]: 3 µL/min/1e6 cells
- logD [5]: 1.8

SMILES: C[C@H](Oc1cc2c(F)ccc(F)c2nc1N)c1cc(C(=O)O)ccc1-n1cccn1
- Kd [1]: 0.064 µM
- IC50 [2]: 4.5 µM
- hepatocyte CLint [3]: < 3 µL/min/1e6 cells
- logD [5]: 1.1
